Columns and labels:
[1] = tested on: antibodies in sera from SARS patients (sera 1a, 1b, 2, 6, 37, 62, London, SARS-yellow, SARS-green); format: binding, human; set-up: Binding of serum 6 to linear peptides of protein X1 of SARS-CoV Urbani / Binding of serum 37 to linear peptides of protein X1 of SARS-CoV Urbani / Binding of serum 6 to looped/cyclic peptide (PEPSCAN-ELISA) / Binding of serum 37 to looped/cyclic peptide (PEPSCAN-ELISA) / Binding of serum 37 to looped/cyclic peptides of protein X1 of SARS-CoV Urbani / Binding of serum 6 to linear peptides of protein X2 / Binding of serum 37 to linear peptides of protein X2 / Binding of serum 37 to looped/cyclic peptides of protein X2 of SARS-CoV Urbani / Binding of serum 6 to linear peptides of protein M of SARS-CoV Urbani / Binding of serum 37 to linear peptides of protein M of SARS-CoV Urbani / Binding of serum 6 to looped/cyclic peptides of protein M of SARS-CoV Urbani / Binding of serum 37 to looped/cyclic peptides of protein M of SARS-CoV Urbani / Binding of serum 6 to linear peptides of protein X3 of SARS-CoV Urbani / Binding of serum 37 to linear peptides of protein X3 of SARS-CoV Urbani / Binding of serum 37 to looped/cyclic peptides of protein X3 of SARS-CoV Urbani / Binding of serum 6 to linear peptides of protein X4 of SARS-CoV Urbani / Binding of serum 37 to linear peptides of protein X4 of SARS-CoV Urbani / Binding of serum 37 to looped/cyclic peptides of protein X4 of SARS-CoV Urbani / Binding of serum 6 to linear peptides of protein X5 of SARS-CoV Urbani / Binding of serum 37 to linear peptides of protein X5 of SARS-CoV Urbani / Binding of serum 37 to looped/cyclic peptides of protein X5 of SARS-CoV Urbani / Binding of serum 6 to linear peptides of protein N of SARS-CoV Urbani / Binding of serum 37 to linear peptides of protein N of SARS-CoV Urbani / Binding of serum 6 to linear peptide (PEPSCAN-ELISA) / Binding of serum 1a to looped/cyclic peptides of protein N of SARS-CoV Urbani / Binding of serum 1b to looped/cyclic peptides of protein N of SARS-CoV Urbani / Binding of serum 2 to looped/cyclic peptides of protein N of SARS-CoV Urbani / Binding of serum 6 to looped/cyclic peptides of protein N of SARS-CoV Urbani / Binding of serum 37 to looped/cyclic peptides of protein N of SARS-CoV Urbani / Binding of serum 62 to looped/cyclic peptides of protein N of SARS-CoV Urbani / Binding of serum London to looped/cyclic peptides of protein N of SARS-CoV Urbani / Binding of serum SARS-green to looped/cyclic peptides of protein N of SARS-CoV Urbani: unit not given here
[2] = tested on: control sera (pooled serum of ten healthy LUMC hospital workers; commercial negative donor pooled serum from the Dutch bloodbank); format: binding, human; set-up: Binding of Control serum LUMC to linear peptides / Binding of Control serum Blood-bank to linear peptides / Binding of Control serum LUMC to looped peptides / Binding of Control Serum Blood-Bank to Looped peptides / Binding of Control serum LUMC to linear peptides of the protein M of SARS-CoV Urbani / Binding of Control serum Blood-bank to linear peptides of the protein M of SARS-CoV Urbani / Binding of Control serum LUMC to looped peptides of the protein M of SARS-CoV Urbani / Binding of Control Serum Blood-Bank to Looped peptides of the protein M of SARS-CoV Urbani: unit not given here
[3] = tested on: rabbit serum obtained by immunizing a rabbit with the SARS-CoV strain Frankfurt 1; format: binding; set-up: Binding of a rabbit serum to linear peptides / Binding of a rabbit serum to looped peptides / Rabbit serum linear peptides / Rabbit serum looped peptides / Binding of a rabbit serum to linear peptides of protein N of SARS-CoV Urbani (Rabbit serum linear peptides) / Binding of a rabbit serum to looped/cyclic peptides of protein N of SARS-CoV Urbani (Rabbit serum looped peptides): unit not given here

SMWSFNPETNILLNV was tested, and the “Binding of serum 1a to linear peptides of protein M of SARS-CoV Urbani” value [1] was 0.8, the “Binding of serum 1a to looped/cyclic peptides of protein M of SARS-CoV Urbani” value [1] was 0.7 and the “Binding of serum 1b to linear peptides of protein M of SARS-CoV Urbani” value [1] was 0.7. The “Binding of serum 1b to looped/cyclic peptides of protein M of SARS-CoV Urbani” value [1] was 0.1, the “Binding of serum 2 to linear peptides of protein M of SARS-CoV Urbani” value [1] was 0.5 and the “Binding of serum 2 to looped/cyclic peptides of protein M of SARS-CoV Urbani” value [1] was 0.8. For the same sequence, the “Binding of serum 6 to linear peptides of protein M of SARS-CoV Urbani” value [1] was 0.5, the “Binding of serum 6 to looped/cyclic peptides of protein M of SARS-CoV Urbani” value [1] was 0.6 and the “Binding of serum 37 to linear peptides of protein M of SARS-CoV Urbani” value [1] was 0.5. For the same sequence, the “Binding of serum 37 to looped/cyclic peptides of protein M of SARS-CoV Urbani” value [1] was 0.8, the “Binding of serum 62 to linear peptides of protein M of SARS-CoV Urbani” value [1] was 0.5 and the “Binding of serum 62 to looped/cyclic peptides of protein M of SARS-CoV Urbani” value [1] was 0.7. For the same sequence, the “Binding of serum London to linear peptides of protein M of SARS-CoV Urbani” value [1] was 0.4, the “Binding of serum London to looped/cyclic peptides of protein M of SARS-CoV Urbani” value [1] was 0.2 and the “Binding of serum SARS-green to linear peptides of protein M of SARS-CoV Urbani” value [1] was 0.5. The “Binding of serum SARS-green to looped/cyclic peptides of protein M of SARS-CoV Urbani” value [1] was 0.2, the “Binding of serum SARS-yellow to linear peptides of protein M of SARS-CoV Urbani” value [1] was 0.2 and the “Binding of serum SARS-yellow to looped/cyclic peptides of protein M of SARS-CoV Urbani” value [1] was 0.7. For the same sequence, the “Binding of Control Serum Blood-Bank to Looped peptides of the protein M of SARS-CoV Urbani” value [2] was 0.8, the “Binding of Control serum Blood-bank to linear peptides of the protein M of SARS-CoV Urbani” value [2] was 0.8 and the “Binding of Control serum LUMC to linear peptides of the protein M of SARS-CoV Urbani” value [2] was 0.8. The “Binding of Control serum LUMC to looped peptides of the protein M of SARS-CoV Urbani” value [2] was 0.7, the “Rabbit serum linear peptides” value [3] was 0.2 and the “Rabbit serum looped peptides” value [3] was 0.4.

With SPLFLIVAALVFLIL the “Binding of serum 1a to linear peptides of protein X4 of SARS-CoV Urbani” value [1] was 0.6, the “Binding of serum 1a to looped/cyclic peptides of protein X4 of SARS-CoV Urbani” value [1] was 0.6 and the “Binding of serum 1b to linear peptides of protein X4 of SARS-CoV Urbani” value [1] was 0.2. The “Binding of serum 1b to looped/cyclic peptides of protein X4 of SARS-CoV Urbani” value [1] was 0.4, the “Binding of serum 2 to linear peptides of protein X4 of SARS-CoV Urbani” value [1] was 0.5 and the “Binding of serum 2 to looped/cyclic peptides of protein X4 of SARS-CoV Urbani” value [1] was 0.7. The “Binding of serum 6 to linear peptides of protein X4 of SARS-CoV Urbani” value [1] was 0.2, the “Binding of serum 6 to looped/cyclic peptides of protein X4 of SARS-CoV Urbani” value [1] was 0.3 and the “Binding of serum 37 to linear peptides of protein X4 of SARS-CoV Urbani” value [1] was 0.6. The “Binding of serum 37 to looped/cyclic peptides of protein X4 of SARS-CoV Urbani” value [1] was 0.7, the “Binding of serum 62 to linear peptides of protein X4 of SARS-CoV Urbani” value [1] was 0.6 and the “Binding of serum 62 to looped/cyclic peptides of protein X4 of SARS-CoV Urbani” value [1] was 0.2. For the same sequence, the “Binding of serum London to linear peptides of protein X4 of SARS-CoV Urbani” value [1] was 0.6, the “Binding of serum London to looped/cyclic peptides of protein X4 of SARS-CoV Urbani” value [1] was 0.4 and the “Binding of serum SARS-green to linear peptides of protein X4 of SARS-CoV Urbani” value [1] was 0.5. The “Binding of serum SARS-green to looped/cyclic peptides of protein X4 of SARS-CoV Urbani” value [1] was 0.6, the “Binding of serum SARS-yellow to linear peptides of protein X4 of SARS-CoV Urbani” value [1] was 0.3 and the “Binding of serum SARS-yellow to looped/cyclic peptides of protein X4 of SARS-CoV Urbani” value [1] was 0.3. For the same sequence, the “Binding of Control Serum Blood-Bank to Looped peptides” value [2] was 0.3, the “Binding of Control serum Blood-bank to linear peptides” value [2] was 0.4 and the “Binding of Control serum LUMC to linear peptides” value [2] was 0.3. The “Binding of Control serum LUMC to looped peptides” value [2] was 0.5, the “Rabbit serum linear peptides” value [3] was 0.5 and the “Rabbit serum looped peptides” value [3] was 0.8.

In the case of SQRVGTDSGFAAYNR, the “Binding of serum 1a to linear peptides of protein M of SARS-CoV Urbani” value [1] is reported as 0.8, the “Binding of serum 1a to looped/cyclic peptides of protein M of SARS-CoV Urbani” value [1] is reported as 0.5 and the “Binding of serum 1b to linear peptides of protein M of SARS-CoV Urbani” value [1] is reported as 0.6. For the same sequence, the “Binding of serum 1b to looped/cyclic peptides of protein M of SARS-CoV Urbani” value [1] was 0.4, the “Binding of serum 2 to linear peptides of protein M of SARS-CoV Urbani” value [1] was 0.4 and the “Binding of serum 2 to looped/cyclic peptides of protein M of SARS-CoV Urbani” value [1] was 0.7. For the same sequence, the “Binding of serum 6 to linear peptides of protein M of SARS-CoV Urbani” value [1] was 0.6, the “Binding of serum 6 to looped/cyclic peptides of protein M of SARS-CoV Urbani” value [1] was 0.6 and the “Binding of serum 37 to linear peptides of protein M of SARS-CoV Urbani” value [1] was 0.5. For the same sequence, the “Binding of serum 37 to looped/cyclic peptides of protein M of SARS-CoV Urbani” value [1] was 0.2, the “Binding of serum 62 to linear peptides of protein M of SARS-CoV Urbani” value [1] was 0.4 and the “Binding of serum 62 to looped/cyclic peptides of protein M of SARS-CoV Urbani” value [1] was 0.5. For the same sequence, the “Binding of serum London to linear peptides of protein M of SARS-CoV Urbani” value [1] was 0.4, the “Binding of serum London to looped/cyclic peptides of protein M of SARS-CoV Urbani” value [1] was 0.2 and the “Binding of serum SARS-green to linear peptides of protein M of SARS-CoV Urbani” value [1] was 0.5. For the same sequence, the “Binding of serum SARS-green to looped/cyclic peptides of protein M of SARS-CoV Urbani” value [1] was 0.4, the “Binding of serum SARS-yellow to linear peptides of protein M of SARS-CoV Urbani” value [1] was 0.5 and the “Binding of serum SARS-yellow to looped/cyclic peptides of protein M of SARS-CoV Urbani” value [1] was 0.6. The “Binding of Control Serum Blood-Bank to Looped peptides of the protein M of SARS-CoV Urbani” value [2] was 0.7, the “Binding of Control serum Blood-bank to linear peptides of the protein M of SARS-CoV Urbani” value [2] was 0.9 and the “Binding of Control serum LUMC to linear peptides of the protein M of SARS-CoV Urbani” value [2] was 1.0. For the same sequence, the “Binding of Control serum LUMC to looped peptides of the protein M of SARS-CoV Urbani” value [2] was 0.6, the “Rabbit serum linear peptides” value [3] was 0.2 and the “Rabbit serum looped peptides” value [3] was 0.1.

From patent US20070128217A1 (priority 2003, published 2007)
